# Measurements: patent US20240374610A1, “METHOD AND PHARMACEUTICAL COMPOSITION FOR TREATING OR ALLEVIATING GLIOMAS IN A SUBJECT” (Zhejiang University, priority 2023, published 2024)
# How the values were obtained:
# [1] = test system: CKO model-derived glioma cell lines 1483 and 1877; test: Proliferation rate of CKO model-derived glioma cell lines (EdU incorporation assay); format: cell-based, mouse; settings: for proliferation of tumor OPCs: 200 μM glutamate, 200 μM GABA or 15 mM KCl vs control, cell lines 1483 and 1877
# From the text: Cell lines were authenticated by tdTomato marker when histology analyzing. All cell lines tested negative for mycoplasma contamination.
# [2] = test system: glioma cells from the CKO model; test: RNA-Seq of glioma cells co-cultured with primary OB neurons and stimulated by IGF-1; format: cell-based, mouse; settings: co-cultures stimulated by 20 ng/mL IGF-1
# Method: OBs were dissected from P2-3 mouse pups and digested in 10 mL papain solution (1×EBSS (Sigma, E7510), 0.5 mM EDTA, 10 mM HEPES, 26 mM NaHCO3, 22.5 mM D(+)-glucose, 0.16 mg/mL L-cycteine, 20 units/mL papain (Worthington Biochem, LS003126), 250 μg/mL DNase I (Sigma, DN-25) in dd-water) for 30 min at 37° C. Papain solution was discarded and the tissue was triturated with 2 mL Diluted Trypsin Inhibitor Buffer (1×EBSS (Sigma, E7510), 10 mM HEPES, 26 mM NaHCO3, 1× ovomucoid (Worthington Biochem, LS003086), 250 μg/mL DNase I (Sigma, DN-25), 1 mg/mL BSA (equitech-bio, BAH62) in dd-water) by 1 mL pipette and was allowed to settle for 2 min. 1 mL upper cell suspension was carefully collected and additional 1 mL Diluted Trypsin Inhibitor Buffer was add to the tissue. The process was repeated until all Diluted Trypsin Inhibitor Buffer was consumed. […]
# For sequencing of tumor cells from co-cultures, raw data was filtered by removing adapter with Cutadapt (Version 3.4) and quality control (not lower than 25). Clean reads were aligned to the reference genome Mus_musculus.GRCm39.dna.primary_assembly.fa (39.103) from Ensembl by STAR (Version 2.7.9a). Read counts were calculated by featureCounts (Version 2.0.1). The feature was selected as Exon, and only reads with mapping quality score greater than 25 were retained. […]
# [3] = test system: peripheral immune cells; test: Immune cells in peripheral blood under clozapine (FACS); format: in vivo, mouse; settings: clozapine by oral or i.p. administration, three weeks
# Method: Blood was collected by intracardial puncture from anaesthetized mice into heparinized 1 ml syringes. Heparin was used in a range of 30 units/ml. Red blood cells were lysed in ACK lysing buffer (Gibco, A10492) at room temperature for 5 min. Cell suspensions were spun down at 300 g for 5 min. The cell pellet was then washed with Hank's balanced salt solution (HBSS) and spun for 5 min at 300 g. The cells in the pellet (1-2×10^5 cells) were used in fluorescence assays. Antibodies used for flow cytometry were directed against the following mouse antigens: Pacific Blue anti-mouse CD45(30-F11), PE anti-mouse Ly-6G(1A8), PerCP/Cyanine5.5 anti-mouse CD11c, FITC anti-mouse CD19(1D3), APC anti-mouse CD3(17A2), APC/Cyanine7 anti-mouse/human CD11b(M1/70) from Biolegend. Dilution: 1: 200.
# [4] = test system: blood-brain-barrier; test: Evans Blue dye assay of blood-brain barrier integrity; format: in vivo, mouse; settings: WT mice, clozapine by drinking water or i.p.
# Method: The protocol was adapted from Ludewig et al.^42 with some modifications. Mice were administrated with 200 μL Evans Blue (2%) by i.p injection. After six hours of EB injection, the mice were anaesthetized and then perfused with cold PBS. 100 mg tissue for each sample from multiple organs (as indicated in the FIG. 9g) was collected in 500 μL PBS and ground into tissue homogenate. 500 μL formamide was then add to the homogenate before being incubated in the 55° C. for 24 hours. After centrifugation, supernatants were collected for optical density detecting at 620 nm.
# [5] = test system: local resident microglia; test: Granulocytes and macrophage/microglia in the brain under clozapine (CD15, Iba1, CD68 staining); format: in vivo, mouse
# Method: All mouse frozen tissues were cryo-sectioned into 20 μm thickness. For routine staining, the slides were fixed in ice-cold 2% PFA for 15 minutes. After washed in 1×PBS (3 times, 10 minutes each), the slides were briefly rinsed with 1×PBT (0.3% Triton X-100 in 1×PBS) and then incubated with the blocking solution (5% normal donkey serum, 0.3% Triton X-100, 0.1% NaN3 in 1×PBS) for 20 minutes. The slides mounted with primary antibodies were then incubated in the wet box at 4° C. overnight. Next day, the slides were washed in 1×PBT (4 times, 10 minutes each) before incubated with secondary antibodies (diluted in 1×PBT) in foil-wrapped wet box at 4° C. overnight. The third day, the slides were washed in 1×PBT (4 times, 10 minutes each) and DAPI solution (25 ng/ml in 1×PBS, 20 minutes). After washing with 1×PBS for 5 minutes, the slides were mounted with the mounting solution (65% glycerol in 1×PBS) and covered with coverslips.
compound,measurement,setting,value
[Cl-].[K+] [potassium chloride],proliferation of tumor OPCs,[1],did not affect
N[C@@H](CCC(=O)O)C(=O)O [Glutamate],proliferation of tumor OPCs,[1],did not affect
insulin-like growth factor-1 [IGF-1],proliferation of tumor OPCs in vitro,"[1]; 20 ng/mL IGF-1, glioma cell lines 1483 and 1877",significantly stimulated the proliferation
same,expression of RTK downstream genes such as Egr3/4 and Fosl2,[2],significant upregulation
same,expression of neurotransmitter receptor genes including AMPARs in tumor OPCs,[2],did not affect the expression
CN1CCN(C2=Nc3cc(Cl)ccc3Nc3ccccc32)CC1 [clozapine],number of granulocytes in peripheral blood,[3],slightly but significantly reduced
same,number of macrophages in peripheral blood,[3],increased
same,integrity of the blood-brain-barrier,[4],did not affect the integrity
same,number or activation of local resident microglia,"[5]; CKO model regardless of tumor stage, Iba1+ and CD68+ Iba1+",not affected
same,granulocytes (CD15) in the brain parenchyma,"[5]; WT, Omp-hM3Dq, Omp-hM4Di and CKO tumor mice with clozapine treatment",barely any granulocytes could be found
NCCCC(=O)O [GABA],proliferation of tumor OPCs,[1],did not affect
O=[N+]([O-])c1cc2nc(O)c(O)nc2cc1[N+](=O)[O-] [DQNX],IGF1-promoted proliferation of tumor OPCs,[1]; 20 ng/mL IGF-1 plus 10 μM AMPA-receptor antagonist vs IGF-1 alone,did not affect
